The source of these data is US20220009920A1 (GB005, Inc., priority 2020, published 2022).

Common to all, as to test: Large panel kinase profiling
Type in all cases: biochemical
Conditions in all cases: 1 μM test article, 1 mM ATP

One experiment concerns the target T1, HCK (Homo sapiens, UniProt P08631).
T1 construct: AssayQuant Technologies, Inc. (service provider)
In outline: (§1)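 Reactions contain 1 mM ATP and 1 μM test article; the CSox peptide sensor reports phosphorylation as fluorescence gain. Temperature is held at 30° C. while signal (360 nm excitation, 485 nm emission) is recorded every 1 min.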

The target of the next experiment is T2, CHUK/IKKA (Homo sapiens, UniProt O15111).
T2 construct: AssayQuant Technologies, Inc. (ran the panel)
T2 sequence (O15111 1-745): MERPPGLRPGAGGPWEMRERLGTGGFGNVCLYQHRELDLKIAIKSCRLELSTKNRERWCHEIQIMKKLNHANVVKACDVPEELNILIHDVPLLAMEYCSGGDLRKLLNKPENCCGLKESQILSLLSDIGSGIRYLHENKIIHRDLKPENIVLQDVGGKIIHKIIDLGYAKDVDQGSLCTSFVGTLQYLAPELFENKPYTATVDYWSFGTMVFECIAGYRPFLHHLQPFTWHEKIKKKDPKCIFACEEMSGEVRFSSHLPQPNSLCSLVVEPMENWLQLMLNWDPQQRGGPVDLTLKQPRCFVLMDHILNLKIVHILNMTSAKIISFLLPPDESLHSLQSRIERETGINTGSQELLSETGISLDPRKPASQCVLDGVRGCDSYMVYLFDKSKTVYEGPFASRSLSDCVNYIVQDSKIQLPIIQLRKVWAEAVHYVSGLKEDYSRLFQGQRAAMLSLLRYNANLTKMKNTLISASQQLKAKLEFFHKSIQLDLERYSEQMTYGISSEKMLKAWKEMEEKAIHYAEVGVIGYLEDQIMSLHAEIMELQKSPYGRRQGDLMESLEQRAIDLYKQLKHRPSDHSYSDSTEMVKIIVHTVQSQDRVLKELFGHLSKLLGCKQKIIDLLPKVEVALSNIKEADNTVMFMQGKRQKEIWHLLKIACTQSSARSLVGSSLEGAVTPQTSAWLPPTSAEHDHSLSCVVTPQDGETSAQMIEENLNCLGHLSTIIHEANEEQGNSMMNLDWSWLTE
In outline:
as §1

The target of another experiment is T3, EPHB3 (Homo sapiens, UniProt P54753).
T3 sequence (P54753 34-998): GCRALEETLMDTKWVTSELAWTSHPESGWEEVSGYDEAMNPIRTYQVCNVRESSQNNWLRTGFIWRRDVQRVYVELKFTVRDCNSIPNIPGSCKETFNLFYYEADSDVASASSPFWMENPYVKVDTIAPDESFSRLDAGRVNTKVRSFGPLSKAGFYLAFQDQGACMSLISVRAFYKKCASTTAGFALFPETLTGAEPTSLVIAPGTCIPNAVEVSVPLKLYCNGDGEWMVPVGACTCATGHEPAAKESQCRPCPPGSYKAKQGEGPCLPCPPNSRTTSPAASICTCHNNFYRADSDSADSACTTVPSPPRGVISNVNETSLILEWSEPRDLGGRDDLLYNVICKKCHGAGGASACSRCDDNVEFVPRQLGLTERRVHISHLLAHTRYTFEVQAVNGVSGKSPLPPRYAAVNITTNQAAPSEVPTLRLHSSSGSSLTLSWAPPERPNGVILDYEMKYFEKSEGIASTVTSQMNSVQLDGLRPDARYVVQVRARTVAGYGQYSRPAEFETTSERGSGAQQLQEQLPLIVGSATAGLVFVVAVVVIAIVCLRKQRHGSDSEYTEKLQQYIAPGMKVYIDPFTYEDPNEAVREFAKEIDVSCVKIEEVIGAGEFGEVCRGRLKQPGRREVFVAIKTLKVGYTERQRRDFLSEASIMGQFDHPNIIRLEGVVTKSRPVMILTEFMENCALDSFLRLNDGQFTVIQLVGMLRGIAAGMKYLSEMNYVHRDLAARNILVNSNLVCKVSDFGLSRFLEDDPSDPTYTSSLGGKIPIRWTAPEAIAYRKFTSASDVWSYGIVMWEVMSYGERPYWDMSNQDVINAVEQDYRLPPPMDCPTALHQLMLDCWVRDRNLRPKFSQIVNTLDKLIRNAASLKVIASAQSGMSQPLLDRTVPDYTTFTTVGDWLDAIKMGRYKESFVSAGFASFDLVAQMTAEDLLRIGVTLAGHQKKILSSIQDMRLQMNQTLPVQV
In outline:
as §1

T1 sequence (P08631 whole entry, species assumed): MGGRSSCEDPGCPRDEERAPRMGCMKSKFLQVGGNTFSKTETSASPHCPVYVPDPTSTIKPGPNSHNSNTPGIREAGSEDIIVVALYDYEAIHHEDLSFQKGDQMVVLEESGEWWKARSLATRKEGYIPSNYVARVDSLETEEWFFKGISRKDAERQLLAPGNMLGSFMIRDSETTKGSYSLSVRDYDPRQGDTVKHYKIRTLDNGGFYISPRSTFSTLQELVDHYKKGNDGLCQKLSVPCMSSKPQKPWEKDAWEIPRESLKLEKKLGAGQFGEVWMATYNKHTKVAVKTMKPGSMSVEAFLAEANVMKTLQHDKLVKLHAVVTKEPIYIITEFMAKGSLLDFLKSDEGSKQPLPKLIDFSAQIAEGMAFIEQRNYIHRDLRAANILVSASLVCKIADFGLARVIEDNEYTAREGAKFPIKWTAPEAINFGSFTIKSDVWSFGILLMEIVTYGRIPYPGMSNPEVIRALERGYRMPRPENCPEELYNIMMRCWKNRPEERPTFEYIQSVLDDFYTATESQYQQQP

For `C=CC(=O)N1CCC[C@@H](c2c(F)cc(C(N)=O)c3[nH]c4c(c23)CCC4)C1` [Compound 10-2, (S)-8-(1-acryloylpiperidin-3-yl)-7-fluoro-1,2,3,4-tetrahydrocyclo-penta[b]indole-5-carboxamide], the inhibition at 1 µM against HCK is -5.8%; at CHUK/IKKA, -14.5%; against EPHB3, -10.1%.
For `C=CC(=O)N1CCCC(c2c(F)cc(C(N)=O)c3[nH]c4c(c23)CCCCC4)C1` (single isomer, unassigned) [Compound 5-6] the same measures were 6.8%, 4% and 17.6%.
Turning to `C=CC(=O)N1CCC[C@@H](c2c(F)cc(C(N)=O)c3[nH]c4c(c23)CC2(CC4)CC2)C1` [Compound 6-2, (S)-5-(1-acryloylpiperidin-3-yl)-6-fluoro-1,2,4,9-tetrahydrospiro[carbazole-3,1′-cyclopropane]-8-carboxamide], the inhibition at 1 µM was 2.8% against HCK, -36.4% on CHUK/IKKA and -24.4% against EPHB3.

Usually inhibition stands for the change of the read-out against control, counted positive when it falls.
